Patent US8299267B2, “(3-hydroxy-4-amino-butan-2-yl) -3- (2-thiazol-2-yl-pyrrolidine-1-carbonyl) benzamide derivatives and related compounds as beta-secretase inhibitors for treating” (CoMentis, Inc., priority 2007, dated 2012)

Tests used:
cathepsin D = cathepsin D (Homo sapiens, UniProt P07339); assay: Inhibition of cathepsin D activity (substrate peptide ELDLAVEFWHDR, MALDI-TOF); assay type: biochemical; conditions: cathepsin D, pH 4.1, 37 degrees C.; read-out: CDKi
Method: [The procedure below names another target; the source lists this target under the same test.] (§1) A substrate peptide NH3-ELDLAVEFWHDR-CO2 (SEQ ID NO.: 1) was dissolved at 2 mg/mL in 10% glacial acetic acid and diluted into 0.009M NaOH to obtain μM concentration at pH 4.1. After equilibration at 37 degrees C., the reactions were initiated by the addition of an aliquot of memapsin 2. Aliquots were removed at time intervals, and combined with an equal volume of MALDI-TOF matrix (α-hydroxycinnamic acid in acetone, 20 mg/mL) and immediately spotted in duplicate onto a stainless-steel MALDI sample plate. MALDI-TOF mass spectrometry was performed on a PE Biosystems Voyager DE. The instrument was operated at 25,000 accelerating volts in positive mode with a 150 ns delay. Ions with a mass-to-charge ratio (m/z) were detected in the range of 650-2000 atomic mass units. Data were analyzed by the Voyager Data Explorer module to obtain ion intensity data for mass species of substrates and corresponding products in a given mixture. Relative product formation was calculated as the ratio of signal intensity of the product to the sum of signal intensities of both product and the corresponding substrate. Relative product formed per unit time was obtained from non-linear regression analysis of the data representing the initial 15% formation of product using the model: 1−e^−kT, where k was the relative hydrolytic rate constant and T was time in seconds. Initial rates were expressed relative to uninhibited controls and fit to a tight-binding model of competitive inhibition as above.

[1] = system: Aβ production in Chinese hamster ovary cells that over-express human APP695 with the London and Swedish mutations; assay: Cellular Aβ IC50 determination (Aβ40 sandwich ELISA); assay type: cell-based; conditions: Cricetulus griseus; Aβ40 in CHO cells over-expressing human APP695, 24 h incubation
Summary of the method: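 APP695 (London/Swedish)-overexpressing CHO cells were treated 48 h after seeding with serial dilutions from near 4 μM top concentration (0.4% DMSO) for 24 h at 37 °C. Secreted Aβ40 was quantified by sandwich ELISA relative to controls and fit to a 4-parameter IC50 model.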

memapsin 2 = memapsin 2 (Homo sapiens, UniProt P56817); assay: Inhibition of memapsin 2 beta-secretase activity toward fluorogenic substrate FS-2; assay type: biochemical; conditions: memapsin 2, pH 4, 37° C., 20 minutes pre-incubation, substrate FS-2; read-out: M2Ki
Summary of the method: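 Memapsin 2 was preincubated with compound 20 min at pH 4, 37 °C, then reacted with fluorogenic substrate FS-2 (MCA-SEVNLDAEFK-DNP), an APP-derived Swedish-variant peptide. Inhibition was followed kinetically by fluorescence.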

memapsin 1 = target: T1, memapsin 1 (Homo sapiens, UniProt Q9Y5Z0); assay: Inhibition of memapsin 1 beta-secretase activity (substrate peptide ELDLAVEFWHDR, MALDI-TOF); assay type: biochemical; conditions: memapsin 1, pH 4.1, 37 degrees C.; read-out: M1Ki
T1 sequence (Q9Y5Z0 63-518): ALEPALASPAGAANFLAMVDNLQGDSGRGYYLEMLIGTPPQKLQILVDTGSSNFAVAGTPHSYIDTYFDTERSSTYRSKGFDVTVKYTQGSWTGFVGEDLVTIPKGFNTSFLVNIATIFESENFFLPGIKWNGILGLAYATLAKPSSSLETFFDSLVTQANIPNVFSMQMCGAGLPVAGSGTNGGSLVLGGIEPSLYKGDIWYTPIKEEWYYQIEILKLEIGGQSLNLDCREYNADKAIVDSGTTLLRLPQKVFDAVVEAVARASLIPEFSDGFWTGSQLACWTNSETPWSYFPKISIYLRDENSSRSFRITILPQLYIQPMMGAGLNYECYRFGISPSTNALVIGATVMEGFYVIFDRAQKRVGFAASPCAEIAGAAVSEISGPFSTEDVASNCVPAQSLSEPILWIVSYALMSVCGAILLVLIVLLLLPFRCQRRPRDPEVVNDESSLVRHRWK
Method: [The procedure below names another target; the source lists this target under the same test.] as §1

Chain of cathepsin D (P07339 65-412, species assumed): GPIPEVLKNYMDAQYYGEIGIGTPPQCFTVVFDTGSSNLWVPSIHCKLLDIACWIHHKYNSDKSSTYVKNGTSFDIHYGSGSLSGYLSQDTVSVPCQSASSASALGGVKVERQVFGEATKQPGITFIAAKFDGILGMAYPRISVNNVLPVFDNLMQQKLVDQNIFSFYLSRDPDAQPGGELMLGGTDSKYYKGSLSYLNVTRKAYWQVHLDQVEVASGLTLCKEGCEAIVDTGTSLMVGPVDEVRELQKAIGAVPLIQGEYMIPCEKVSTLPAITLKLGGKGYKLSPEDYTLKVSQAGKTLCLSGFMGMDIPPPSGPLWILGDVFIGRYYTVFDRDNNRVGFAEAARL
Chain of memapsin 2 (P56817 46-501): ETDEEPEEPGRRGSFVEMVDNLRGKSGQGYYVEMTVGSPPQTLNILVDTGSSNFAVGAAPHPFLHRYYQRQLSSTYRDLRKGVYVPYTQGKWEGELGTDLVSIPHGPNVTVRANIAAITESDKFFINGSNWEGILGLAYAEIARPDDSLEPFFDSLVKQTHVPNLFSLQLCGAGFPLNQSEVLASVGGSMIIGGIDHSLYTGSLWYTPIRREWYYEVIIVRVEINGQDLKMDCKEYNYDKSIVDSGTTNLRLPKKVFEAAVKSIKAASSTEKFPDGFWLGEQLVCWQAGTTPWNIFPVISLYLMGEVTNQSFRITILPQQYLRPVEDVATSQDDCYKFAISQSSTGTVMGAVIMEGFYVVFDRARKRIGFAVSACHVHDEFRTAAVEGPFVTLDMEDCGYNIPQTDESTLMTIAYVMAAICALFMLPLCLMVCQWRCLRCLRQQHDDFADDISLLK

Ki (cathepsin D)	IC50 [1]	Ki (memapsin 2)	Ki (memapsin 1)	SMILES
301 to 500 nM	< 300 nM	< 100 nM	< 300 nM	Cc1csc([C@H]2CCCN2C(=O)c2cccc(C(=O)N[C@@H](Cc3ccccc3)[C@H](O)CNCc3cncc(C(C)C)c3)c2)n1 [Compound 2, N-((2S,3R)-3-hydroxy-4-((5-isopropylpyridin-3-yl)methylamino)-1-phenylbutan-2-yl)-3-((R)-2-(4-methylthiazol-2-yl)pyrrolidine-1-carbonyl)benzamide]
301 to 500 nM	< 300 nM	< 100 nM	> 501 nM	COc1cccc(CNC[C@@H](O)[C@H](Cc2ccccc2)NC(=O)c2cc(C)cc(C(=O)N3CCC[C@@H]3c3nc(C)cs3)c2)c1 [Compound 6, N-((2S,3R)-3-hydroxy-4-(3-methoxybenzylamino)-1-phenylbutan-2-yl)-3-methyl-5-((R)-2-(4-methylthiazol-2-yl)pyrrolidine-1-carbonyl)benzamide]
> 501 nM	< 300 nM	< 100 nM	301 to 500 nM	Cc1csc([C@H]2CCCN2C(=O)c2cccc(C(=O)N[C@@H](Cc3ccccc3)[C@H](O)CNCc3cccc(C(F)(F)F)c3)c2)n1 [Compound 9, N-((2S,3R)-3-hydroxy-1-phenyl-4-(3-(trifluoromethyl)benzylamino)butan-2-yl)-3-((R)-2-(4-methylthiazol-2-yl)pyrrolidine-1-carbonyl)benzamide]
> 501 nM	< 300 nM	< 100 nM	301 to 500 nM	Cc1csc([C@H]2CCCN2C(=O)c2cccc(C(=O)N[C@@H](Cc3ccccc3)[C@H](O)CNCc3cccc(C(C)(C)C)c3)c2)n1 [Compound 10, N-((2S,3R)-4-(3-tert-butylbenzylamino)-3-hydroxy-1-phenylbutan-2-yl)-3-((R)-2-(4-methylthiazol-2-yl)pyrrolidine-1-carbonyl)benzamide]
> 501 nM	< 300 nM	< 100 nM	< 300 nM	Cc1cc(C(=O)N[C@@H](Cc2ccccc2)[C@H](O)CNCc2cccc(C(F)(F)F)c2)cc(C(=O)N2CCC[C@@H]2c2nc(C)cs2)c1 [Compound 12, N-((2S,3R)-3-hydroxy-1-phenyl-4-(3-(trifluoromethyl)benzylamino)butan-2-yl)-3-methyl-5-((R)-2-(4-methylthiazol-2-yl)pyrrolidine-1-carbonyl)benzamide]
	< 300 nM	< 100 nM		Cc1coc([C@H]2CCCN2C(=O)c2cccc(C(=O)N[C@@H](Cc3ccccc3)[C@H](O)CNCc3cncc(C(C)(F)F)c3)c2)n1 [Compound 102, N-((2S,3R)-4-((5-(1,1-difluoroethyl)pyridin-3-yl)methylamino)-3-hydroxy-1-phenylbutan-2-yl)-3-((R)-2-(4-methyloxazol-2-yl)pyrrolidine-1-carbonyl)benzamide]
	< 300 nM	< 100 nM		Cc1coc([C@H]2CCCN2C(=O)c2cccc(C(=O)N[C@@H](Cc3ccccc3)[C@H](O)CNCc3cncc(C(F)(F)F)c3)c2)n1 [Compound 103, N-((2S,3R)-3-hydroxy-1-phenyl-4-((5-(trifluoromethyl)pyridin-3-yl)methylamino)butan-2-yl)-3-((R)-2-(4-methyloxazol-2-yl)pyrrolidine-1-carbonyl)benzamide]
	< 300 nM	< 100 nM		Cc1cc(C(=O)N[C@@H](Cc2ccccc2)[C@H](O)CNCc2cccc(C(C)(F)F)c2)cc(C(=O)N2CCC[C@@H]2c2nc(C)co2)c1 [Compound 104, N-((2S,3R)-4-(3-(1,1-difluoroethyl)benzylamino)-3-hydroxy-1-phenylbutan-2-yl)-3-methyl-5-((R)-2-(4-methyloxazol-2-yl)pyrrolidine-1-carbonyl)benzamide]
	< 300 nM	< 100 nM		C=C(C)c1cccc(CNC[C@@H](O)[C@H](Cc2ccccc2)NC(=O)c2cccc(C(=O)N3CCC[C@@H]3c3nc(C)co3)c2)c1 [Compound 105, N-((2S,3R)-3-hydroxy-1-phenyl-4-(3-(prop-1-en-2-yl)benzylamino)butan-2-yl)-3-((R)-2-(4-methyloxazol-2-yl)pyrrolidine-1-carbonyl)benzamide]
